Assay results: patent publication US4031218A, “7-(2,3-Dihydroxypropyl-1,3-di-n-propylxanthine and a pharmaceutical composition containing same useful as a bronchial muscle relaxant” (Mallinckrodt, Inc., priority 1976, dated 1977)
≈ marks a conversion by molar mass, not a printed value.

Columns and labels:
[1] = Kattus et al. 1951; cited from earlier work
[2] = Solubility
[3] = system: dogs; experiment: Oral minimum emetic dose in dogs; format: in vivo, dog
Description: 2. Oral Minimum Emetic Dose
The minimum dose of each compound which causes emesis after oral administration was estimated in a group of five adult mongrel dogs of either sex. Logarithmically increasing or decreasing (depending upon response) doses of each compound were administered orally via a flexible stomach tube. The compounds were dissolved in distilled water in concentrations to allow a constant volume dose of 5 ml/kg. […] Onset, frequency, and duration of emetic episodes as well as signs of CNS stimulation were also recorded.

[4] = system: human bronchodilator; experiment: Estimated human bronchodilator dose equivalent to recommended theophylline dose; conditions: based on recommended theophylline dose and relative bronchodilator activities
From the text: Experimental results are summarized in Table I wherein pharmacologic and toxicologic activities relative to that of theophylline are expressed on a molar basis.
^a - Dose: Based on the recommended dose for theophylline and the
relative activities in the bronchodilator experiments.

[5] = Summary of relative molar activities (means and therapeutic efficacy); conditions: mean bronchodilator (therapeutic) activity divided by mean acute toxic and side effect activity
From the text: ^g - Mean bronchodilator (therapeutic) activity divided by mean acute

[6] = Intravenous emetic study in dogs (ED50); format: in vivo, dog; conditions: dog, in vivo, iv; read-out: ED50 (median emetic dose), I.V. Dogs
Description: (§1) Twelve adult mongrel dogs of either sex were employed to determine the median emetic dose (ED50) of all five experimental compounds after intravenous administration. […] Onset, frequency, and duration of emetic episodes were also recorded. The dogs were not fasted, were allowed at least 2 days rest between doses, and no animal received the same compound twice in succession. […] ED50 values were calculated according to the method of Litchfield and Wilcoxon (1949).

[7] = system: dogs; experiment: Intravenous emetic study in dogs (ED50); format: in vivo, dog; conditions: estimated at HBD
Description: as §1

[8] = system: dogs; conditions: dog, in vivo, iv
Description: Intravenous Cardiovascular Evaluation in Dogs
Thirteen adult mongrel dogs of either sex ranging in weight from 16.7 to 25.0 kg were employed to compare the overall intravenous cardiovascular activity of the five experimental compounds.
Dogs were anesthetized with pentobarbital sodium, 30-35 mg/kg i.v., fitted with a cuffed endotracheal tube, and ventilated with a Harvard Animal Respiratory Pump. A femoral vein was cannulated for i.v. drug administration. The left common carotid artery was cannulated and the cannula tip advanced into the aortic arch. A median sternotomy was performed and appropriately sized electromagnetic blood flow transducers (Biotronex) were placed around the ascending aorta and left anterior descending coronary artery. These procedures allowed continuous recording or calculation of the following parameters:
a. Mean Arterial Pressure (MAP); from the aortic cannula.
b. Heart Rate (HR); electronically from pulsatile ascending aortic flow.
c. Cardiac Output (CO); mean ascending aortic flow.
d. Myocardial Contractile Force (MCF); dQ/dt, the first derivative of maximum aortic flow rate, also known as peak aortic flow acceleration.
e. Stroke Volume (SV); quotient of CO/HR.
f. Cardiac Work (CW); product of CO X MAP.
g. Total Peripheral Resistance (TPR); quotient of MAP/CO.
h. Coronary Flow (CF); mean left anterior descending (LAD) coronary flow.
i. Coronary Resistance (CR); quotient of MAP/CF.
Logarithmically increasing doses of the appropriate compound were injected at 20-minute intervals. Responses were measured at 1, 2, 5, 10, 15 and 20 minutes after each dose and the average response during that period was calculated. Theophylline (aminophylline), dyphylline (II), and Compound V were employed in both 20 and 80 mg/ml concentrations in distilled water. Compounds III and IV were used in 10 and 30 mg/ml concentrations respectively.

[9] = prior art statement; cited from earlier work
[10] = system: dogs; conditions: dog, in vivo, iv; remark: listed apart in the source
Description: Acute Intravenous Evaluation in Dogs
Compounds were tested in two dogs each. Animals were initially hydrated with 30 ml/kg of water, orally; then anesthetized with pentobarbital sodium, 30-35 mg/kg i.v. One femoral vein was cannulated and a constant intravenous infusion of warm saline (3 ml/min.) was begun and continued throughout the experiment. The contralateral femoral vein was also cannulated for intravenous drug administration. Urine was directly collected from bilateral ureter cannulae. After a 20-minute control collection period, the first dose of the appropriate compound was injected and urine was collected at 20-minute intervals for a period of one hour. This procedure was repeated for two additional doses of the same compound. Urine volume, pH, and sodium and potassium levels were determined for each 20-minute collection period and sums were obtained for the one-hour period after each dose. Test results, reported as successive changes in each parameter, were compared accordingly.

CCCCn1c(=O)c2[nH]cnc2n(CCCC)c1=O [1,3-dibutyl xanthine]
Diuretic and emetic properties in words (prior art) [1]: extremely potent

CCn1c(=O)c2[nH]cnc2n(CC)c1=O [1,3-diethyl, 1,3-diethyl xanthine]
Diuretic and emetic properties in words (prior art) [1]: extremely potent

CCCn1c(=O)c2[nH]cnc2n(CCC)c1=O [1,3-dipropyl, 1,3-dipropyl xanthine]
Diuretic and emetic properties in words (prior art) [1]: extremely potent

Cn1c(=O)c2[nH]cnc2n(C)c1=O [Compound I, 1,3-dimethylxanthine]
solubility ([2]; water): 8 mg/mL (≈ 44.4 mM)
Solubility in words ([2]; water solubility, qualitative): poor solubility
MED (minimum emetic dose), P.O. Dogs [3]: 128 mg/kg
Emetic effect, P.O. Dogs ([3]; estimated at HBD): None
Estimated Human Bronchodilator Dose (HBD), per 70 kg [4]: 200 mg/70 kg
Estimated Human Bronchodilator Dose (HBD), per kg [4]: 2.9 mg/kg
Therapeutic Efficacy [5]: 1.00
ED50 [6]: 58 mg/kg
Emetic effect, I.V. Dogs [7]: None
CF (coronary flow) change [8]: +21 %Δ
CO (cardiac output) change [8]: +7 %Δ
CW (cardiac work) change [8]: -5 %Δ
Cardiovascular effects (Mean) [8]: 12
HR (heart rate) change [8]: +11 ΔBPM
MAP (mean arterial pressure) change [8]: -12 ΔmmHg
MCF (myocardial contractile force) change [8]: +17 %Δ
TPR (total peripheral resistance) change [8]: -12 %Δ
Water solubility in words (prior art) [9]: lack of water solubility
Diuretic Activity, I.V. Dogs [10]: Mild
